Experimental data published in patent US20200062719A1, “Application of Imidazopyridine Derivatives in Regenerative Medicine” (University of Heidelberg, priority 2018, published 2020).

Columns and labels:
[1] = tested on: Oct4; assay: Luciferase reporter assay in NCCIT-Oct4 cells; format: cell-based, human; conditions: histone demethylase inhibitors, 48 h
Description: The ability of the lead compound to induce Oct4 at translational level was tested in a luciferase reporter cell line in human embryonic carcinoma NCCIT cells driven by Oct4 response elements (NCCIT-Oct4). The compound lead to a nearly 10-fold induction of Oct4 at 10 nM compared to untreated cells (FIG. 1B). Consequently, the lead compound was named “Oct4 inducing compound 3” (O4I3).
Luciferase reporter assay was performed using Beatle Juice Kit (PJK, Germany) according to the manufacturer's instruction. NCCIT-Oct and NCCIT-Nanog reporter cells were plated into a 24-well plate (100,000 cells/well) for 24 h. Cells were treated with compounds as indicated and harvested with luciferase lysis buffer (25 mM Tris phosphate buffer pH=7.8, 4 mM EGTA, 1% Triton X-100, 10% glycerol and 2 mM fresh DTT, filtered through 0.45 μm sterile filter) at 37° C. for 15 min. The protein concentration was determined by Bradford assay (Sigma, Germany). 100 μL reaction mixture containing luciferin and ATP was added to 20 μL cell lysis in a white plate (Gibco, Germany), incubated for 5 min and measured by a luminometer plate-reader. The activity was determined as percent luminous intensity of treated cells over control cells from at least five-independent experiments.

[2] = tested on: promoter of Oct4; assay: ChIP-qPCR of H3K4Me3 at the promoter of Oct4 in reprogramming-resistant fibroblasts; format: cell-based, human; conditions: HF4, in combination with OSKM overexpression
Excerpt: The importance of active tri-methylation of histone H3 lysine 4 (H3K4Me3) in promoting transcription factors binding to an ‘open’ chromatin state and thereby initiation of reprogramming is known in the art. In good agreement, the inventors found the abundance of H3K4Me3 in O4I3-treated reprogramming-resistant fibroblasts by immunostaining (FIG. 14) and immunoblotting (FIG. 5B). To directly study if O4I3 facilitated the binding of H3K4Me3 to the promoter of Oct4, a CHIP-qPCR experiment was performed.
In reprogramming-resistant HF4, the level of H3K4Me3 at the promoter of OCT4 was increased by OSKM, but was still nearly 1,000-fold lower than that in PSCs (FIG. 19A). […] However, a clear influence on H3K4 methylation was not observed in the presence of KDM5B-, KDM5C-, or KDM5D-siRNA (FIG. 19A). […] Indeed, the reprogramming efficiency is negatively correlated with the expression of KDM5A in 11 HFs (FIG. 19D). Moreover, KDM5A siRNA increased the global level of H3K4Me3 in a dose-dependent manner (FIG. 19E). Of note, the alternation in the occupation of H3K27Me3 at the promoter of OCT4 was more refractory to chemical inhibition or genetic repression of KDM5s in the inventors' experiments (FIG. 19B). […]

[3] = tested on: human fibroblasts; assay: qRT-PCR of reprogramming associated genes in human fibroblasts; format: cell-based; parameters: expression of OCT4, SOX2, and E-Cadherin in HFs: dose or concentration left out as unconfirmed; conditions: JIB-04 treated fibroblasts
Description: Analyzing the effects of O4I3 on human fibroblasts, the activation of reprogramming associated genes, including an about 10-fold induction of Oct4, Nanog and Lin28, and an about 100-fold increase of Sox2 and E-Cadherin mRNA levels was detected. In particular, expression of several essential genes for reprogramming is equal to those in pluripotent stem cells, such as Esrrb, FGF2 and Sall4 (FIG. 12).
Quantitative reverse-transcription real-time-PCR was performed using a Light Cycler 96 (Roche, Germany) following the manufacturer's protocol. Briefly, total RNA was isolated from cells using TRIzol (Qiagen, Germany) or NucleoSpin®RNA Plus (Macherey-Nagel, Germany). The same amount of RNA was used to reverse-transcriptional synthesize cDNA by using random primers ProtoScript® First Strand cDNA Synthesis Kit (NEB, Germany). qPCR was performed using the SYBR Green PCR master mix (qPCRBIO SyGreen Mix Lo-Rox, Nippon Genetics, Germany) and the primer pairs indicated below (MWG, Eurofins, Germany). Actin was used as an endogenous control. Data were normalized to the value of untreated cells showing the mean±SD of quadruplicates and are representative of at least three independent experiments.

[4] = tested on: OCT4-promoter; assay: Luciferase reporter assay in HEK-OCT4 cells; format: cell-based
Description: In an effort to find such chemical structures able to induce pluripotency, a high-throughput screening (HTS) was performed. The screen was based on cellular luciferase reporter assays under the control of the promoter activity of a pluripotency-associated transcription factor (Oct4) in HEK293 cells.
The inventors adopted Hantzsch thiazole synthesis (FIG. 20A) and produced a series of new O4I2-ester derivatives (FIG. 20B). Their activities were measured in three luciferase report cell lines, namely HEK-OCT4, driven by the activation of OCT4-promoter, and NCCIT-OCT4 and NCCIT-NANOG, whose intensities are controlled by endogenous OCT4 and NANOG respectively. […] Carboxylesterase 1 (CES1) is an enzyme majorly contributing to ester-to-acid conversion.

Compound | induction of OCT4 expression in NCCIT-OCT4 reporter cell line [1] [fold] | levels of H3K4Me3 at the promoter of OCT4 [2] | expression of OCT4, SOX2, and E-Cadherin in HFs [3] | activity in HEK-OCT4 cells [4]
Clc1ccc(N/N=C(\c2ccccc2)c2ccccn2)nc1 [JIB-04, reference compound] | 5 | significantly elevated | induction | –
O=C(O)c1csc(Nc2ccc(Cl)cc2)n1 [O4I2-COON, 2-(4-chlorophenylamino)thiazole-4-carboxylic acid] | – | – | – | inactive
